Test results as given in patent publication US6451853B1, “Small molecules that elicit a polarized Th1 response and for modulation of cellular immunity” (Dovetail Technologies, Inc, priority 1998, dated 2002).
Several values for one entry are separate records, joined by “and”; a condition that tells them apart may be missing. Identical values can stand only once.

Columns and labels:
Cloudman S-91 cells = assay: CTL lysis of Cloudman S-91 targets (CMFDA leakage); assay type: cell-based, DBA/2 mouse; details: CTLs generated using 0.14 M Taurox-SB in addition to IL-6/IL-12; 10:1 effector:target, 16 hours
Experimental: The analysis was extended to include killing of the Cloudman S-91 targets used for the CTL generation. Cloudman S-91 cells (5×104) were loaded with chloromethylfluorescein diacetate (CMFDA) and incubated for 16 hours with CTLs generated from DBA/2 splenocytes at a 10:1 effector:target ratio. Lysis was detected by leakage of the CMFDA.

MOLT-4 T cell line = assay: CD69 expression by flow cytometry, MOLT-4; assay type: cell-based
Experimental: (§1) CD69 Expression. CD69 expression was assessed by flow cytometry as described previously. […] CD69 is one of the earliest stimulation markers expressed on T cells upon activation (Testi et al., 1994). The cross-linking of this marker is believed to generate extracellular Ca++ influxes and activate phospholipase A2, and thus it is believed to be an integral part of the activation process (Testi et al., 1994).

HUT-78 T cell line = assay: CD69 expression by flow cytometry, HUT-78; assay type: cell-based
Experimental: as §1

PBMC = assay: CD69 expression by flow cytometry, PBMC T cells; assay type: cell-based; details: for CD69 Expression, MFI of 10,000 events: PBMC
Experimental: as §1

T cells = assay: Ca++ mobilization kinetics with fluo-3AM; assay type: cell-based; details: final concentrations 0.14 mM to 1.4 mM; eight minute time period; data not shown
Experimental: The kinetics of Ca++ mobilization was observed using the dye fluo-3AM which is a membrane permeable Ca++ indicator which becomes increasingly fluorescent upon Ca++ binding. A baseline reading indicates the resting state of Ca++, followed by injection of Taurox-SB to yield final concentrations of 0.14 mM to 1.4 mM. […] PHA was added as a positive control for the elicitation of a Ca++ response (Greimers et al., 1996). […] (Data not shown.) The role of the second messenger response could be varied, as many proteins are activated by Ca++-regulated intracellular pathways. Second messengers may serve to enhance production of cytokines by immune cells.

human PBMCs [1] = assay: PBMC proliferation by 3H-thymidine incorporation; assay type: cell-based
Experimental: Treatment with 0.14 mM Taurox-SB increased proliferation of human PBMCs with and without PHA, as detected by incorporation of 3H-thymidine (Table 18).
Human PBMCs are obtained through collection of peripheral blood and isolation over Ficoll 1077. The cells are counted and 5×10^5 cells are plated in triplicate in 96 well plates in 100 μl of media (RPMI 1640, 20% FBS) containing specified conditions. These cells are then allowed to incubate for 48 hours. After this incubation 1 μCi of ^3H-Thymidine is added in a […] volume. The plates are incubated an additional 24 hours and harvested on a Tomtec plate harvester and the filtermat read in a scintillation counter. Many studies have been performed using the drugs in combination with PHA (T cell stimulant (mitogen)) obtained from Sigma.

human PBMCs [2] = assay: Cell cycle analysis; assay type: cell-based; details: 18 and 24 hours of exposure
[3] = system: surface TNF alpha on human monocytes; assay: Surface TNF alpha expression on monocytes by FACS (CD14+ cells); assay type: cell-based; details: for Monocyte TNF alpha surface expression, % Positive: fluorescence greater than isotype control peak
[4] = system: surface TNF alpha on human T cells; assay: Surface TNF alpha expression on T cells by FACS (gating on CD3+ cells); details: for TNF alpha in T cells, % Total / TNF alpha in T cells, MFI: marker All; for surface TNF alpha, overall MFI: 20 mM NAC without or with 20 mM BT; for surface TNF alpha expression, Time Course: each drug 20 mM
[5] = system: Cytokine mRNA from T cells (PBMC); assay: RNase protection assay of cytokine mRNA in PBMC (T cells), with or without PMA/ionomycin; details: 6 hours, unit not given
[6] = system: surface TNF alpha on human monocytes; assay: Surface TNF alpha expression on monocytes by FACS (CD14+ cells); assay type: cell-based; details: all drugs 20 mM
Source text: The effect of NAC and BT, alone or in combination, on surface TNF alpha expression by stimulated or unstimulated monocytes (prepared from PBM) was examined. […] Table 6. While only a small proportion of T cells from each donor were responsive to the combination NAC/BT, the effect on surface TNF alpha expression in monocytes was significant.

[7] = system: soluble TNF alpha release from human lymphocytes; assay: Soluble TNF alpha in supernatants by ELISA; details: Media (unstimulated); drugs 20 mM; ELISA standard curve in pg/mL, unit not given
[8] = air and aqueous solutions; cited from earlier work
[9] = With PMA + Ionomycin stimulation, 1.4 mM TSB, 16 hours
[10] = With PMA + Ionomycin stimulation, .14 mM TSB, 16 hours
[11] = Without stimulation, 1.4 mM TSB, 16 hours
[12] = Without stimulation, .14 mM TSB, 16 hours
[13] = Taurox-SB 14 nM, no stimulation
[14] = Taurox-SB 14 nM, with stimulation
[15] = Taurox-SB 1.4 uM, no stimulation
[16] = Taurox-SB 1.4 uM, with stimulation
[17] = Taurox-SB 1.4 mM, no stimulation
[18] = Taurox-SB 1.4 mM, with stimulation

O=C(CCNC(=O)OCc1ccccc1)NCCS(=O)(=O)O [Taurox-SB, carbobenzoxy beta-alanyl taurine]
lysis of Cloudman S-91 targets (Cloudman S-91 cells): 73% | CD69 Expression, MFI of 10,000 events (MOLT-4 T cell line; MOLT-4 + PHA, 1.4 mM): 547 | CD69 Expression, MFI of 10,000 events (MOLT-4 T cell line; MOLT-4, 1.4 mM): 208 | CD69 Expression, MFI of 10,000 events (HUT-78 T cell line; HUT-78 + PHA, 1.4 mM): 409 | CD69 Expression, MFI of 10,000 events (HUT-78 T cell line; HUT-78, 1.4 mM): 278 | CD69 Expression, MFI of 10,000 events (PBMC; 1.4 mM): 7 | CD69 Expression, MFI of 10,000 events (PBMC; 14 mM): 11 | CD69 expression (PBMC; T cells, concentrations less than 1.4 mM): without effect | Ca++ mobilization (T cells): rising or sustained | PBMC Proliferation, mean cpm ± SD (human PBMCs [1]; 0.14 mM, No PHA): 2964 ± 684 cpm | PBMC Proliferation, mean cpm ± SD (human PBMCs [1]; 0.14 mM, PHA 10 μg/ml): 5538 ± 597 cpm | viability (human PBMCs [1]; 1.4 mM): slight reduction in viability | PBMC Proliferation, mean cpm ± SD (human PBMCs [1]; .014 mM, No PHA): 1346 ± 70 cpm | PBMC Proliferation, mean cpm ± SD (human PBMCs [1]; .014 mM, PHA 10 μg/ml): 4794 ± 652 cpm | cell cycle distribution (human PBMCs [2]): increase in the proportion of cells in G2/M | Monocyte TNF alpha surface expression, % Positive ([3]; PMA/iono + Taurox-SB 1.4 mM): 59% and 53% and 57% and 36% | Monocyte TNF alpha surface expression, % Positive ([3]; Taurox-SB 1.4 mM, no PMA/iono): 9% and 3% | Monocyte TNF alpha surface expression, MFI ([3]; Taurox-SB 1.4 mM, no PMA/iono, separate experiments): 19.91 and 16.68 and 10.95 | TNF alpha in T cells, % Total [4, 9]: 88.89% | TNF alpha in T cells, MFI [4, 9]: 85.04 | TNF alpha in T cells, % Total [4, 10]: 85.64% | TNF alpha in T cells, MFI [4, 10]: 169.68 | TNF alpha in T cells, % Total [4, 11]: 72.09% | TNF alpha in T cells, MFI [4, 11]: 25.34 | TNF alpha in T cells, % Total [4, 12]: 78.07% | TNF alpha in T cells, MFI [4, 12]: 20.18 | Effect on GAPDH message [5, 13]: −20.94 | Effect on IFNg message [5, 13]: 21.53 | Effect on Ltb message [5, 13]: 29.83 | Effect on TGFb1 message [5, 13]: 17.51 | Effect on TNFa message [5, 13]: 2.10 | Effect on TNFb message [5, 13]: 62.96 | Effect on GAPDH message [5, 14]: −8.10 | Effect on IFNg message [5, 14]: −32.73 | Effect on Ltb message [5, 14]: 12.29 | Effect on TGFb1 message [5, 14]: −10.25 | Effect on TNFa message [5, 14]: −15.96 | Effect on TNFb message [5, 14]: 22.72 | Effect on GAPDH message [5, 15]: −8.16 | Effect on IFNg message [5, 15]: 16.76 | Effect on Ltb message [5, 15]: 21.09 | Effect on TGFb1 message [5, 15]: 29.61 | Effect on TNFa message [5, 15]: 21.27 | Effect on TNFb message [5, 15]: 311.16 | Effect on GAPDH message [5, 16]: 4.88 | Effect on IFNg message [5, 16]: −9.85 | Effect on Ltb message [5, 16]: 2.92 | Effect on TGFb1 message [5, 16]: −0.09 | Effect on TNFa message [5, 16]: 48.67 | Effect on TNFb message [5, 16]: 4.18 | Effect on GAPDH message [5, 17]: 4.96 _ | Effect on IFNg message [5, 17]: 388.08 | Effect on Ltb message [5, 17]: 85.61 | Effect on TGFb1 message [5, 17]: 36.89 | Effect on TNFa message [5, 17]: 461.93 | Effect on TNFb message [5, 17]: 373.82 | Effect on GAPDH message [5, 18]: −38.75 | Effect on IFNg message [5, 18]: −64.90 | Effect on Ltb message [5, 18]: 234.28 | Effect on TGFb1 message [5, 18]: −25.88 | Effect on TNFa message [5, 18]: −100.00 | Effect on TNFb message [5, 18]: 20.95

CC(=O)N[C@@H](CS)C(=O)O [NAC, N-acetyl-L-cysteine, reference compound]
surface TNF alpha expression ([6]; stimulated monocytes): relative ineffectiveness | surface TNF alpha expression ([6]; unstimulated monocytes): not upregulated | Soluble TNF [7]: 15 | surface TNF alpha, overall MFI ([4]; NAC + Stimulation (1 micromolar Ionomycin, 10 ng/ml PMA), individual donors): 25.32 and 31.12 and 95.45 and 53.48 and 17.39 and 12.59 | surface TNF alpha, overall MFI ([4]; NAC + Stimulation with 1 ng PMA): 11.31 and 12.76 | surface TNF alpha expression, Time Course ([4]; Pma/iono, 6 hours): 82 | surface TNF alpha expression, Time Course ([4]; Pma/iono, 16 hours): 93 | surface TNF alpha expression, Time Course ([4]; Pma/iono, 24 hours): 101 | surface TNF alpha expression, Time Course ([4]; Pma/iono, 42 hours): 113 | surface TNF alpha expression, Time Course ([4]; Pma/iono, 68 hours): 80 | surface TNF alpha, overall MFI ([4]; no stimulation, individual donors): 24.7 and 6.96 and 17.49 and 6.34 and 6.68 | surface TNF alpha expression, Time Course ([4]; unstimulated, 6 hours): 20 | surface TNF alpha expression, Time Course ([4]; unstimulated, 16 hours): 33 | surface TNF alpha expression, Time Course ([4]; unstimulated, 24 hours): 39 | surface TNF alpha expression, Time Course ([4]; unstimulated, 42 hours): 56 | surface TNF alpha expression, Time Course ([4]; unstimulated, 68 hours): 47

NCCC(=O)NCCS [beta-aletheine]
stability [8]: unstable in air and aqueous solutions
